Results reported in patent publication US20250243189A1, “HERBICIDAL IMIDAZOLE-CONTAINING COMPOUNDS” (SYNGENTA CROP PROTECTION AG, priority 2022, published 2025).

Key:
Format in all cases: in vivo
Conditions in all cases: 250 g/ha, evaluated after 13 days, five-point scale
[1] = system: Amaranthus retoflexus (AMARE); test: Post-emergence herbicidal glasshouse test
Procedure: (§1) Seeds of a variety of test species are sown in standard soil in pots Amaranthus retoflexus (AMARE), Echinochloa crus-galli (ECHCG), Setaria faberi (SETFA)). After cultivation for one day (pre-emergence) or after 8 days cultivation (post-emergence) under controlled conditions in a glasshouse (at 24/16° C., day/night; 14 hours light; 65% humidity), the plants are sprayed with an aqueous spray solution derived from the formulation of the technical active ingredient in acetone/water (50:50) solution containing 0.5% Tween 20 (polyoxyethelyene sorbitan monolaurate, CAS RN 9005-64-5). Compounds are applied at 250 g/ha unless otherwise stated. The test plants are then grown in a glasshouse under controlled conditions in a glasshouse (at 24/16° C., day/night; 14 hours light; 65% humidity) and watered twice daily. After 13 days for pre and post-emergence, the test is evaluated for the percentage damage caused to the plant. The biological activities are shown in the following table on a five-point scale (5=81-100%; 4=61-80%; 3=41-60%; 2=21-40%; 1=0-20%).

[2] = system: Echinochloa crus-galli (ECHCG); test: Post-emergence herbicidal glasshouse test
Procedure: as §1

IPOHE [3] = test: Post-emergence herbicidal glasshouse test
Procedure: as §1

AMAPA [4] = test: Post-emergence herbicidal glasshouse test
Procedure: [Worded in the source for another organism; this organism is reported under the same test.] as §1

[5] = system: Amaranthus retoflexus (AMARE); test: Pre-emergence herbicidal glasshouse test
Procedure: as §1

[6] = system: Echinochloa crus-galli (ECHCG); test: Pre-emergence herbicidal glasshouse test
Procedure: as §1

IPOHE [7] = test: Pre-emergence herbicidal glasshouse test
Procedure: as §1

AMAPA [8] = test: Pre-emergence herbicidal glasshouse test
Procedure: [Worded in the source for another organism; this organism is reported under the same test.] as §1

Compound	percentage damage caused to the plant, AMARE [1]	percentage damage caused to the plant, ECHCG [2]	percentage damage caused to the plant, IPOHE (IPOHE [3])	percentage damage caused to the plant, AMAPA (AMAPA [4])	percentage damage caused to the plant, AMARE [5]	percentage damage caused to the plant, ECHCG [6]	percentage damage caused to the plant, IPOHE (IPOHE [7])	percentage damage caused to the plant, AMAPA (AMAPA [8])
FC(F)n1cc(-c2nc(C(F)(F)F)cn2Cc2ncc(Cl)cn2)cn1 [Compound 1.017]	5 (5=81-100%)	5 (5=81-100%)	5 (5=81-100%)	5 (5=81-100%)	5 (5=81-100%)	5 (5=81-100%)	5 (5=81-100%)	5 (5=81-100%)
N#Cc1ccc(-c2nc(C(F)(F)F)cn2Cc2ncc(Cl)cn2)s1 [Compound 1.027]	5 (5=81-100%)	5 (5=81-100%)	4 (4=61-80%)	5 (5=81-100%)	5 (5=81-100%)	5 (5=81-100%)	5 (5=81-100%)	5 (5=81-100%)
FC(F)(F)c1cn(Cc2ncc(Cl)cn2)c(-c2cc(Cl)cs2)n1 [Compound 1.010]	4 (4=61-80%)	4 (4=61-80%)	4 (4=61-80%)	4 (4=61-80%)	5 (5=81-100%)	5 (5=81-100%)	4 (4=61-80%)	5 (5=81-100%)
FC(F)(F)c1cn(Cc2ncc(Cl)cn2)c(-c2sc(Cl)nc2Cl)n1 [Compound 1.046]	2 (2=21-40%)	1 (1=0-20%)	1 (1=0-20%)	2 (2=21-40%)	1 (1=0-20%)	1 (1=0-20%)	1 (1=0-20%)	4 (4=61-80%)
Cc1ncsc1-c1nc(C(F)(F)F)cn1Cc1ncc(Cl)cn1 [Compound 1.042]	5 (5=81-100%)	4 (4=61-80%)	4 (4=61-80%)	5 (5=81-100%)	5 (5=81-100%)	5 (5=81-100%)	5 (5=81-100%)	5 (5=81-100%)
FC(F)(F)c1cn(Cc2ccc(Cl)cn2)c(-c2ccc(Cl)s2)n1 [Compound 1.047]	5 (5=81-100%)	4 (4=61-80%)	4 (4=61-80%)	5 (5=81-100%)	5 (5=81-100%)	4 (4=61-80%)	2 (2=21-40%)	5 (5=81-100%)
FC(F)(F)c1cn(Cc2ncc(Cl)cn2)c(-c2cnco2)n1 [Compound 1.020]	3 (3=41-60%)	1 (1=0-20%)	4 (4=61-80%)	2 (2=21-40%)	5 (5=81-100%)	1 (1=0-20%)	4 (4=61-80%)	3 (3=41-60%)
Fc1ccc(-c2nc(C(F)(F)F)cn2Cc2ncc(Cl)cn2)s1 [Compound 1.038]	5 (5=81-100%)	5 (5=81-100%)	4 (4=61-80%)	4 (4=61-80%)	5 (5=81-100%)	5 (5=81-100%)	5 (5=81-100%)	5 (5=81-100%)
FC(F)(F)c1cn(Cc2ncc(Cl)cn2)c(-c2ncco2)n1 [Compound 1.019]	1 (1=0-20%)	1 (1=0-20%)	1 (1=0-20%)	1 (1=0-20%)	1 (1=0-20%)	1 (1=0-20%)	1 (1=0-20%)	1 (1=0-20%)
FC(F)(F)c1cn(Cc2ncc(Cl)cn2)c(-c2csc(Cl)n2)n1 [Compound 1.009]	2 (2=21-40%)	1 (1=0-20%)	1 (1=0-20%)	2 (2=21-40%)	4 (4=61-80%)	1 (1=0-20%)	1 (1=0-20%)	3 (3=41-60%)
FC(F)(F)c1cn(Cc2ncc(Cl)cn2)c(-c2csc(Cl)c2)n1 [Compound 1.021]	4 (4=61-80%)	4 (4=61-80%)	4 (4=61-80%)	5 (5=81-100%)	5 (5=81-100%)	5 (5=81-100%)	4 (4=61-80%)	5 (5=81-100%)
FC(F)(F)c1cn(Cc2ncc(Cl)cn2)c(-c2scnc2Cl)n1 [Compound 1.045]	4 (4=61-80%)	2 (2=21-40%)	4 (4=61-80%)	4 (4=61-80%)	5 (5=81-100%)	1 (1=0-20%)	5 (5=81-100%)	5 (5=81-100%)
FC(F)c1cn(Cc2ncc(Cl)cn2)c(-c2cnc(Cl)s2)n1 [Compound 1.071, 2-chloro-5-[1-[(5-chloropyrimidin-2-yl)methyl]-4-(difluoromethyl)imidazol-2-yl]thiazole]	5 (5=81-100%)	4 (4=61-80%)	2 (2=21-40%)	4 (4=61-80%)	5 (5=81-100%)	4 (4=61-80%)	5 (5=81-100%)	5 (5=81-100%)
Cc1ccc(-c2nc(C(F)(F)F)cn2Cc2ncc(Cl)cn2)s1 [Compound 1.011]	4 (4=61-80%)	4 (4=61-80%)	2 (2=21-40%)	4 (4=61-80%)	5 (5=81-100%)	5 (5=81-100%)	5 (5=81-100%)	5 (5=81-100%)
